Among the data in paper PMC5970136, “Molecular basis of dimer formation during the biosynthesis of benzofluorene-containing atypical angucyclines” (Nature Communications, 2018) are MIC values, retold here.

Molecules are shown by their SMILES. ≈ marks a conversion by molar mass, not a printed value. Where only a bound is given, the exact number is not on record here.

What all share (assay): microbe, parasite or virus in culture
Common to all, as to design: broth microdilution in Mueller-Hinton broth, minimum inhibitory concentration
(Dilution methods test growth across graded concentrations, often in twofold steps.)

One assay relates to T1, B. subtilis SCSIO BS01.
T1 construct: SCSIO BS01
The following applies: Bacillus subtilis, SCSIOBS01, 18 h. The protocol: (§1) Antimicrobial activities were measured against seven indicator strains (Staphylococcus aureus ATCC 29213, Escherichia coli ATCC 25922, Enterococcus faecalis ATCC 29212, Acinetobacter baumannii ATCC 19606, Bacillus subtilis SCSIO BS01, Micrococcus Luteus SCSIO ML01, and methicillin resistant S. aureus ATCC 43300) by the broth microdilution method[8],[9]. Bacterial strains were grown to achieve an optical absorbance of 0.04−0.06 at 600 nm on a rotary shaker at 37 °C. […] The minimum inhibitory concentration (MIC) values were measured after 18 h cultivation. Each compound was tested in triplicates with TMP as a positive control. […] A proof of concept experiment was carried out in which FST D (7) was incubated with the antibacterial agent trimethoprim (TMP, 34). Two products 35 and 36 isolated from this reaction (Fig. 6a, Supplementary Fig. 128) were structurally characterized as hybrids of TMP and FST (Fig. 6a; Supplementary Figs. 129−142). Similar results were obtained upon incubation of TMP (34) with compound 27, but not with compound 28 (Supplementary Fig. 143). These findings again support the hypothesis that spontaneous formation of a p-QM precursor is a prerequisite for the production of FST hybrids.

Assay [1] deals with T2, Staphylococcus aureus MRSA ATCC 43300.
T2 construct: ATCC 43300 (methicillin resistant)
The settings on record: 18 h. The protocol: as §1

Another assay has as its system T3, M. Luteus SCSIO ML01.
T3 construct: SCSIO ML01
The settings on record: Micrococcus luteus, 18 h. The protocol:
as §1

The subject of another assay is T4, S. aureus ATCC 29213.
T4 construct: ATCC 29213
The settings on record: Staphylococcus aureus, ATCC29213, 18 h. The protocol:
as §1

Another assay deals with T5, E. coli ATCC 25922.
T5 construct: ATCC 25922
The following applies: Escherichia coli, ATCC25922, 18 h. The protocol: as §1

A further assay has as its system T6, E. faecalis ATCC 29212.
T6 construct: ATCC 29212
The following applies: Enterococcus faecalis, ATCC29212, 18 h. The protocol:
as §1

For a further assay, the system named is T7, A. baumannii ATCC 19606.
T7 construct: ATCC 19606
The settings on record: Acinetobacter baumannii, ATCC19606, 18 h. The protocol: as §1

`CC12OC1C(O)c1c(cc(O)c3c1C(=O)c1c(C4c5c(cc(O)c6c5C(=O)c5cccc(O)c5-6)C(=O)C5(C)OC45)ccc(O)c1-3)C2=O` (centres unmarked) [compound 24, difluostatin F]: the MIC (against B. subtilis SCSIO BS01; in assay [1]; in the assay on M. Luteus SCSIO ML01; with S. aureus ATCC 29213; with E. coli ATCC 25922; in the assay on E. faecalis ATCC 29212) was more than 64 µg/mL each time. The MIC in the assay on A. baumannii ATCC 19606 was more than 64 µg/mL.

Turning to `Cc1cc(O)cc(O)c1C(=O)c1c(O)cccc1Cc1cc2c(c(=O)o1)C1c3c(cc(O)c4c3C(=O)c3cccc(O)c3-4)C(=O)C(C)(O2)C1O` (centres unmarked) [compound 16, difluostatin C], the MIC (against B. subtilis SCSIO BS01; in assay [1]; against M. Luteus SCSIO ML01; against S. aureus ATCC 29213; against E. coli ATCC 25922; against E. faecalis ATCC 29212) was more than 64 µg/mL throughout. In the assay with A. baumannii ATCC 19606, this compound gave an MIC of more than 64 µg/mL.

Turning to `Cc1ccc2c3c(c(O)cc2c1O)-c1c(O)cccc1C3=O` [compound 12, isoprefluostatin], the MIC against B. subtilis SCSIO BS01 was 32 µg/mL (≈ 109 µM); in assay [1], 64 µg/mL (≈ 219 µM); with M. Luteus SCSIO ML01, 64 µg/mL (≈ 219 µM); in the assay on S. aureus ATCC 29213 it was 64 µg/mL (≈ 219 µM); against E. coli ATCC 25922 it was more than 64 µg/mL; in the assay with E. faecalis ATCC 29212, more than 64 µg/mL. The same compound gave an MIC against A. baumannii ATCC 19606 of more than 64 µg/mL.

`C[C@]12O[C@H]1[C@H](Nc1ccc(C(=O)O)cc1)c1c(cc(O)c3c1C(=O)c1cccc(O)c1-3)C2=O` [compound 14, FST S]: the MIC (with B. subtilis SCSIO BS01; in assay [1]; in the assay with M. Luteus SCSIO ML01; against S. aureus ATCC 29213; in the assay on E. coli ATCC 25922; against E. faecalis ATCC 29212) was more than 64 µg/mL throughout. Also, in the assay on A. baumannii ATCC 19606, the MIC was more than 64 µg/mL.

As for `CC(=O)NN1c2c(c3c(c4c2C(=O)C(C)(O)C=C4)C(=O)c2cccc(O)c2-3)OC2C1c1c(cc(O)c3c1C(=O)c1cccc(O)c1-3)C(=O)C2(C)O` (centres unmarked) [compound 15, difluostatin B], the MIC (against B. subtilis SCSIO BS01; in assay [1]; against M. Luteus SCSIO ML01; against S. aureus ATCC 29213; against E. coli ATCC 25922; against E. faecalis ATCC 29212) was more than 64 µg/mL each time. Further, in the assay with A. baumannii ATCC 19606, the MIC was more than 64 µg/mL.

Take `COc1cc(Cc2cnc(N)nc2N)cc(OC)c1OC` [Trimethoprim]: the MIC in the assay on B. subtilis SCSIO BS01 stood at 0.5 µg/mL (≈ 1.72 µM); in assay [1] it was 0.5 µg/mL (≈ 1.72 µM); against M. Luteus SCSIO ML01, 1 µg/mL (≈ 3.44 µM); in the assay with S. aureus ATCC 29213, 0.5 µg/mL (≈ 1.72 µM); in the assay with E. coli ATCC 25922, 0.25 µg/mL (≈ 0.861 µM); against E. faecalis ATCC 29212 it was 2 µg/mL (≈ 6.89 µM). For the same compound, the MIC in the assay with A. baumannii ATCC 19606 was 64 µg/mL (≈ 220 µM).

Take `COC1c2c(cc(O)c3c2C(=O)c2c(C4c5c(cc(O)c6c5C(=O)c5cccc(O)c5-6)C(=O)C5(C)OC45)ccc(O)c2-3)C(=O)C2(C)OC12` (centres unmarked) [compound 26, difluostatin H]: the MIC against B. subtilis SCSIO BS01 is 64 µg/mL (≈ 99.3 µM); in assay [1], more than 64 µg/mL; against M. Luteus SCSIO ML01, more than 64 µg/mL; against S. aureus ATCC 29213, more than 64 µg/mL; in the assay with E. coli ATCC 25922 it was more than 64 µg/mL; against E. faecalis ATCC 29212, more than 64 µg/mL. This compound also showed an MIC in the assay with A. baumannii ATCC 19606 of more than 64 µg/mL.

In the case of `Cc1ccc2c(c1)OC1(C)C(=O)c3cc(O)c4c(c3C(N2)C1O)C(=O)c1cccc(O)c1-4` (centres unmarked) [compound 33, 33], the MIC (against B. subtilis SCSIO BS01; in assay [1]; in the assay with M. Luteus SCSIO ML01; in the assay on S. aureus ATCC 29213; against E. coli ATCC 25922; against E. faecalis ATCC 29212) was more than 64 µg/mL in each case. In addition, the MIC against A. baumannii ATCC 19606 was more than 64 µg/mL.
